The record followed here is BindingDB's records for patent US10010539 (Merck Sharp & Dohme, 2018).

For orientation: IC50 means the midpoint of a concentration-inhibition curve. A low value points to greater potency.

The target of this experiment is T1, Orexin receptor type 2 (Homo sapiens, UniProt O43614).
T1 sequence (O43614 whole entry): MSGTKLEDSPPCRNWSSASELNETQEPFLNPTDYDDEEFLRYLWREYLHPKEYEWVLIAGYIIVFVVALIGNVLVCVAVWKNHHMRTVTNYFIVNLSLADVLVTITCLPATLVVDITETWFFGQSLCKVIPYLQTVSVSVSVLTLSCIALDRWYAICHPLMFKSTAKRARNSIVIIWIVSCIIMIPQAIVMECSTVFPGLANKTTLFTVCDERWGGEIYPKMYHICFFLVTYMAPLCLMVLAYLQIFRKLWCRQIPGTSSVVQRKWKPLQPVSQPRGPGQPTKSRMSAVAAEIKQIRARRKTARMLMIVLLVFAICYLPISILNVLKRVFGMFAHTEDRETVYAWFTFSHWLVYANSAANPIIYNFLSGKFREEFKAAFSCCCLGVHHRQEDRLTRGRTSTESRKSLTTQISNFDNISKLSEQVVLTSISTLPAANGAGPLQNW
Kind of experiment: FLIPR Ca2+ Flux Assay. On the procedure:
For intracellular calcium measurements, Chinese hamster ovary (CHO) cells expressing the rat orexin-1 receptor or the human orexin-2 receptor, are grown in Iscove's modified DMEM containing 2 mM L-glutamine, […], 1% hypoxanthine-thymidine supplement, 100 U/ml penicillin, 100 μg/ml streptomycin and 10% heat-inactivated fetal calf serum (FCS). The cells are seeded at 20,000 cells/well into Becton-Dickinson black 384-well clear bottom sterile plates coated with poly-D-lysine. All reagents were from GIBCO-Invitrogen Corp. The seeded plates are incubated overnight at 37° C. and 5% CO2. Ala-6,12 human orexin-A as the agonist is prepared as a 1 mM stock solution in 1% bovine serum albumin (BSA) and diluted in assay buffer (HBSS containing 20 mM HEPES, 0.1% BSA and 2.5 mM probenecid, pH7.4) for use in the assay at a final concentration of 70 pM. […] Within the Fluorescent Imaging Plate Reader (FLIPR, Molecular Devices), test compounds are added to the plate in a volume of 25 μl, incubated for 5 min and finally 25 μl of agonist is added. Fluorescence is measured for each well at 1 second intervals for 5 minutes and the height of each fluorescence peak is compared to the height of the fluorescence peak induced by 70 pM Ala-6,12 orexin-A with buffer in place of antagonist.
In general terms: A change in cytosolic calcium serves as a functional read-out for many receptors and channels.

SMILES strings stand for the structures.

`CC(C)Oc1ncccc1C(=O)N1C[C@H](n2ncc(C(C)(C)O)n2)CC[C@H]1C` [US10010539, 15] came in with an IC50 of 32.6 nM.
`CCOc1ccccc1C(=O)N1C[C@H](n2ncc(C(C)(C)O)n2)CC[C@H]1C` [US10010539, 12]: it took 31.3 nM to reach half-maximal inhibition (IC50).
